# Data: patent publication US5371186A, “Synthetic peptides for detoxification of bacterial endotoxins and for the prevention and treatment of septic shock” (priority 1992, dated 1994)
# Legend:
# [1] = direct competition with Polymyxin "B" (Affinity constant, Selectivity); assay type: binding, B. pertussis
# Text: To further characterize the binding activity of the synthetic peptides for Lipid A of endotoxin, experiments of direct competition with Polymyxin "B" have been set-up in order to evaluate the Affinity constant value of Polymyxin "B" for the toxic moiety of endotoxin and ultimately to calculate the Selectivity of the synthetic peptide analogs (ratio on molar basis, between the affinity constant value of a given peptide and that of Polymyxin "B" for Lipid A).
# [2] = prevention of endotoxin-induced death in CD1 mice sensitized with Actinomycin D; assay type: in vivo, mice (Strain CD1); settings: 0.1 mg/mouse i.v., 1 μg endotoxin i.p.; for Mice surviving: 20 mice per group
# Description: Prevention of endotoxin-induced death in mice, has been achieved by intravenous injection of the peptides of the invention. For this experiment, a strain of mice highly sensitive to the lethal activity of bacterial endotoxin has been used. Mice sensitized with Actinomycin D (Strain CD1) show a high sensitivity to extremely low doses of endotoxin. A dose as low as 1 μg of endotoxin per mouse (about 40 μg/kg of body weight) is able to completely kill a population of mice within 24-48 hours.
# Groups of 20 mice CD1 have been treated intravenously with the peptides of the invention, with a single dose of 0.1 mg peptide, solubilized in sterile saline, per mouse. Thirty minutes later, mice were challenged by intraperitoneal injection of 1 μg of endotoxin purified from E. Coli strain 055-B5. Surviving mice were recorded every 24 hours during a seven days-period of observation. […] Negative controls received an intravenous injection of saline.
# (§1) There were 20 mice per group. Mice surviving at each of the seven 24 hours observation periods are listed. The % survival appears in parenthesis. P expresses the level of statistical significance calculated by "t-Test" for each molecule compared to the treatment with saline, considering the total survival rate in each group.
# [3] = same species of mice (Swiss Webster); cited from earlier work
# [4] = tested on: Haemophilus influenzae; assay: antibiotic activity, zone of inhibition on BHI plates; assay type: cell-based, H. influenzas; settings: 18 hours
# Description: (§2) The following experiments compared the antibiotic activity of Polymyxin "B" with various peptides of the invention.
# (§3) The tests were performed on BHI plates with liquid cultures of the test organism to give a lawn. Each peptide was diluted in water and placed on sterile Wathmam 3M disks on the surface of the plate. The plates were dried and incubated at 37° C. The zone of inhibition was measured after 18 hours: […]
# [5] = tested on: trypsin in human serum; assay: stability towards proteolysis by trypsin in human serum; assay type: in vitro ADME
# Description: The effects of trypsin present in human serum on Polymyxin "B" and the peptides of invention was determined by combining 10 μl of human serum with 20 μg of the given peptide in 10 μl volume and holding the mixture at a temperature of 37° C. for different intervals of time. At various times, an aliquot of the mixture was processed by HPLC analysis in order to detect the residual amount of the investigated peptide. In Table VI the half-lives time of each peptide investigated are shown as compared to the half-life time of Polymyxin "B".
# [6] = survival of Balb/c mice after endotoxin challenge; assay type: in vivo, mice (Strain Balb/c); settings: for % survival / Mice surviving: peptides 1 mg/mouse, Polymyxin B 0.1 mg/mouse i.v., 1 mg endotoxin i.p.; for Mice surviving: 20 mice per group
# Description: Groups of 20 mice Balb/c have been treated intravenously with the peptides of the invention at the dose of 1 mg/mouse or with 0.1 mg/mouse of Polymyxin B (the highest dose of this drug tolerated in the mouse, when injected alone). Thirty minutes later, mice were challenged by intraperitoneal injection of 1 mg endotoxin from E.C strain 055-B5. Surviving mice were recorded every 24 hours during a seven days-period of observation. Negative controls received an intravenous injection of saline.
# as §1
# [7] = tested on: Salmonella Typhi; assay: antibiotic activity, zone of inhibition on BHI plates; assay type: cell-based, S. typhi; settings: 18 hours
# Description: as §2, §3
# [8] = Limulus (LAL) test, inhibition of LPS-induced gelation; assay type: biochemical, B. Pertussis; settings: LPS/Pept (w/w) 1; LPS 0.1 μg
# Text: As a consequence of this high-affinity binding to the Lipid A moiety of endotoxins, most of the synthetic peptide analogs have shown the ability to detoxify endotoxins as evidenced by in vitro as well as in vivo analysis. The in vitro test used, as measure of detoxification, the inhibition of the enzymatic cascade leading to the coagulation of the Lymulus lysate (LAL test) by endotoxin. The LAL test is recognized as the most sensitive and predictive test for the toxic and pyrogenic activity of LPS, since pyrogenicity in vivo is related to the release of the endogenous immune modulators Interleukin-1 (IL-l) and alfa-Tumor necrosis factor (α-TNF), the mediators responsible for the fatalities associated to septic shock. As an in vivo test confirming detoxification of LPS, was then used the Rabbit pyrogen test performed according to the United States Pharmacopeia XXI.
# The results obtained by the Limulus (LAL) test, shown in Table V, support the data obtained by measuring the Affinity of the peptides of the invention for the Lipid A moiety of LPS in that they were substantially equivalent to Polymyxin "B" in the inhibition of LPS activity on Limulus. […] Peptide I was, in fact, the one presenting the non complete structure needed for the mimick of Polymyxin "B" as the synthetic peptide analogs II, IV, VI and VII have clearly shown in the previous Table IV. […]
substance,measurement,setting,value
"Polymyxin ""B""",AFFINITY (Ka),[1]; for Lipid A of LPSbp,1.15e+07 L/mol
same,SELECTIVITY (KaANA /KaPCP),"[1]; ratio of Ka of peptide to Ka of Polymyxin ""B"" for Lipid A",1.0
same,% survival,[2]; 24 hs,50%
same,Mice surviving,[2]; 24 hs,10
same,% survival,[2]; 48 hs,40%
same,Mice surviving,[2]; 48 hs,8
same,% survival,[2]; 72 hs,30%
same,Mice surviving,[2]; 72 hs,6
same,% survival,[2]; 96 hs,30%
same,Mice surviving,[2]; 96 hs,6
same,% survival,[2]; 120 hs,30%
same,Mice surviving,[2]; 120 hs,6
same,% survival,[2]; 144 hs,30%
same,Mice surviving,[2]; 144 hs,6
same,% survival,[2]; 168 hs,30%
same,Mice surviving,[2]; 168 hs,6
same,LD50,[3],2.5 to 5 mg/kg
same,Zone (mm) of inhibition H. influenzas,[4]; 0.008 μg/ml,0 mm
same,Zone (mm) of inhibition H. influenzas,[4]; 0.04 μg/ml,0 mm
same,Zone (mm) of inhibition H. influenzas,[4]; 0.2 μg/ml,3 mm
same,Zone (mm) of inhibition H. influenzas,[4]; 1.0 μg/ml,6 mm
same,stability in the presence of proteolytic enzymes such as trypsin,[5],stable in the presence of trypsin
same,Half-Life Time (t/2),"[5]; human serum, 37° C.",> 3 h
same,% survival,[6]; 24 hs,90%
same,Mice surviving,[6]; 24 hs,18
same,% survival,[6]; 48 hs,70%
same,Mice surviving,[6]; 48 hs,14
same,% survival,[6]; 72 hs,60%
same,Mice surviving,[6]; 72 hs,12
same,% survival,[6]; 96 hs,0%
same,Mice surviving,[6]; 96 hs,0
same,% survival,[6]; 120 hs,0%
same,Mice surviving,[6]; 120 hs,0
same,% survival,[6]; 144 hs,0%
same,Mice surviving,[6]; 144 hs,0
same,% survival,[6]; 168 hs,0%
same,Mice surviving,[6]; 168 hs,0
same,safety and efficacy of treatment,"[6]; Balb/c mice, 1 mg endotoxin challenge",resulted efficacious only within three days following the endotoxin challenge
same,Zone (mm) of inhibition S. typhi,[7]; 0.008 μg/ml,0 mm
same,Zone (mm) of inhibition S. typhi,[7]; 0.04 μg/ml,1 mm
same,Zone (mm) of inhibition S. typhi,[7]; 0.2 μg/ml,2 mm
same,Zone (mm) of inhibition S. typhi,[7]; 1.0 μg/ml,4 mm
same,LAL TEST,[8],NEGATIVE
